# Experimental data: US11672795B2, “Compositions and methods for treating pulmonary vascular disease” (UNIVERSITY OF PITTSBURGH-OF THE COMMONWEALTH SYSTEM OF …, priority 2016, dated 2023)
# Tests used:
# [1] = test system: PAECs; experiment: Apoptosis of PAECs on soft or stiff matrix (caspase 3/7 activity, cleaved caspase-3 staining); assay type: cell-based, human
# Experimental: A-C) PAECs were plated on soft (1 kPa) or stiff (50 kPa) matrix and exposed to indicated treatments. Apoptosis (A-C) and proliferation (B-C) were quantified 48 h after plating. […] In all panels, mean expression in control groups (soft matrix) was assigned a fold change of 1, to which relevant samples were compared. Data are expressed as mean±SD (*P<0.05; ** P<0.01, ***P<0.001).
# After various indicated treatments, cultured cells were fixed with PBS/PFA 4% for 10 min and permeabilized with PBS/Triton 100×0.1% for 10 min. The cells were then incubated with anti-PCNA (#4912; 1/100; Invitrogen), anti-Ki67 (ab15580; 1/200; Abcam), and/or anti-cleaved caspase-3 (1/200; Cell Signaling) at room temperature for 2 hours. Secondary antibodies coupled with Alexa-594 and/or Alexa-488 (Thermo Scientific) were used at 1/500. Nuclei were counterstained with DAPI (Sigma).
# Caspase 3/7 activity was quantified using the Caspase-Glo 3/7 Assay (Promega), according to manufacturer's instructions. Briefly, cells were plated on hydrogel of different stiffness and treated as described. Twenty four hours after plating, cells were cultured in the presence or absence of serum for twenty-four hours. Cells were then lysed and 10 μg of total protein were incubated for 1 h with the caspase substrates, and luminescence was quantified by plate reader (SynergyHTX multi-mode reader, Biotek).
# [2] = test system: GLS1; experiment: Targeted LC-MS/MS of intracellular metabolites in PAECs on soft or stiff matrix with GLS inhibitors; assay type: cell-based, human; conditions: stiff matrix, BPTES 10 μM, DON 5 μM, C968 10 μM
# Experimental: HEK293T cells (American Type Culture Collection) were cultivated in DMEM containing 10% fetal bovine serum (FBS). Primary human pulmonary arterial endothelial cells (PAECs) were grown in EGM-2 cell culture media (Lonza), and experiments were performed at passages 3 to 6. Primary human pulmonary arterial smooth muscle cells (PASMCs) were cultured in SmGM-2 cell culture media (Lonza), and experiments were performed at passages 3 to 9. Inhibitors of GLS1 (2, 3): BPTES (Bis-2-(5-phenylacetamido-1,3,4-thiadiazol-2-yl)ethyl sulphide), DON (6-Diazo-5-oxo-L-norleucine), and C968 (Glutaminase Inhibitor, Compound 968, 5-(3-Bromo-4-(dimethylamino)phenyl)-2,2-dimethyl-2,3,5,6-tetrahydrobenzo[a]phenanthridin-4(1H)-one) were purchased from Sigma-Aldrich and used at concentration of 10 μM, 5 μM and 10 μM respectively. Glutamate was purchased from Sigma Aldrich and used at concentration of 2 mM. Aspartate was purchased from Sigma Aldrich and used at concentration of 10 mM.
# Metabolite extraction was performed essentially as described with minor modifications (35). Briefly, metabolites were extracted from cultured cells and CD31+ cells on dry ice using 80% aqueous methanol pre-cooled at −80° C. Metabolites were extracted from plasma pre-cleared by centrifugation at 20,000×g for 10 min at 4° C. Supernatants were extracted with four volumes of 100% methanol pre-cooled at −80° C. for four hours at −80° C. An internal standard, [^13C4]-2-oxoglutarate (Cambridge Isotope Laboratories) was added during metabolite extraction. Insoluble material from both cell and plasma extractions was removed by centrifugation at 20,000×g for 15 min at 4° C. The supernatant was analysed by targeted LC-MS/MS as previously described (36). Metabolites were separated using a ZIC-HILIC stationary phase (150 mm×2.1 mm×[…]; Merck). The MS parameters were optimized using a glutamine standard solution. Monitored mass transitions were 87>87 (pyruvate), 115>73+99 (succinate), 132>88 (aspartate), 145>101 (20G), […] (glutamine), 146>128 (glutamate), and 149>105 ([^13C4]-20G). Mass transitions and retention time windows were confirmed by the analysis of neat and matrix-spiked standards. Peak areas were quantified by Xcalibur Software (Thermo) and manually reviewed.
# To determine whether GLS1 is critical for stiffness-induced and YAP/TAZ-dependent glutaminolysis, PAECs were cultivated in soft or stiff matrix, and exposed to known inhibitors of two isoforms of GLS1 (KGA and GAC), BPTES (Bis-2-(5-phenylacetamido-1,3,4-thiadiazol-2-yl)ethyl sulphide), DON (6-Diazo-5-oxo-L-norleucine), or CB-968 (glutaminase inhibitor, compound 968, C-968) (FIG. 3A-C) or siRNA (si-GLS; FIG. 3D-G). As quantified by LC-MS/MS, inhibition of GLS in PAECs blunted the stiffness-induced processes of glutamine consumption, glutamate production, and aspartate production (FIGS. 3A and E). […] Similar alterations of metabolic activity were observed when inhibiting GLS1 in PASMCs (data not shown).
smiles,measurement,setting,value
"CN(C)c1ccc(C2Nc3ccc4ccccc4c3C3=C2C(=O)CC(C)(C)C3)cc1Br (stereo not shown) [C968, 5-(3-Bromo-4-(dimethylamino)phenyl)-2,2-dimethyl-2,3,5,6-tetrahydrobenzo[a]phenanthridin-4(1H)-one]","apoptosis (cleaved caspase-3 staining, CC-3+)","[1]; serum starvation, soft and stiff conditions",not affected
same,caspase 3/7 activity,"[1]; soft (1 kPa) or stiff (50 kPa) matrix, 24 h after serum depletion, vs vehicle control",No significant changes
same,"alterations of metabolite expression in stiff matrix (stiffness-induced glutamine consumption, glutamate production, aspartate production)",[2],blunted
same,lactate/pyruvate ratio (glycolysis),[2],decreased
